Bounds are passed on as bounds.

For the experiment, the target named is T1, PD-1/PD-L1 (Homo sapiens, UniProt Q9NZQ7).
T1 construct: Recombinant human PD-L1 protein (19-238) with a His-tagged at the C-terminus; purchased AcroBiosystems PD1-H5229 (PD-L1); PD1-H5257 (PD-1)
T1 sequence (Q9NZQ7 19-238): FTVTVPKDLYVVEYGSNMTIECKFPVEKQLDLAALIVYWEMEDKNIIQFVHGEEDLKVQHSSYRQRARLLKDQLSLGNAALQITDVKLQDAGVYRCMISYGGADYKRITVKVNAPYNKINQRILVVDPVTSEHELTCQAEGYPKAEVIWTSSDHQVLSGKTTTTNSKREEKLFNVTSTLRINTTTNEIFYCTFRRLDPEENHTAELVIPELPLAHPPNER
The experiment in a line: PD-1/PD-L1 homogeneous time-resolved fluorescence (HTRF) binding assay. The following applies: PD-1/PD-L1 HTRF binding, ~3 nM PD1, 10 nM PD-L1, 25° C., PBS pH 7.4. The method, then:
Assays were performed in standard black 384-well polystyrene plates and a final volume was 20 μL. The inhibitor was first serially diluted with DMSO and added to the wells of the plate, followed by the addition of other reaction components. The final concentration of DMSO in the assay was 1%. Assays were performed at 25° C. in PBS buffer (pH 7.4) containing 0.05% Tween-20 and 0.1% BSA. Recombinant human PD-L1 protein (19-238) with a His-tagged at the C-terminus was purchased from AcroBiosystems (PD1-H5229). Recombinant human PD-1 protein (25-167) with an Fc tag at the C-terminus was also purchased from AcroBiosystems (PD1-H5257). The PD-L1 and PD-1 proteins were diluted in assay buffer and then […] of the solution was extracted and added to the wells of the plate. Plates were centrifuged and proteins and inhibitors were preincubated for 40 minutes. After incubation, 0.1 μl of HTRF detection buffer containing europium […] labeled anti-human IgG (PerkinElmer-AD0212), Fc-specific and anti-His SureLight®-Allophycocyanin (APC, PerkinElmer-AD0059H) conjugated antibodies was added. After centrifugation, the plates were incubated at 25° C. for 60 minutes. Data was read in a PHERAstar FS plate reader (665 nm/620 nm ratio). Final concentrations in the assay were ˜3 nM PD1, 10 nM PD-L1, 1 nM europium anti-human IgG, and 20 nM anti-His-allophycocyanin. Activity data were fitted using GraphPad Prism 5_0 software to derive IC50 values for inhibitors.
Compound `Cc1c(Nc2nccc3cc(CN4CC[C@@H](O)C4)cnc23)cccc1-c1cccc(-c2cc3cc4c(c([N+](=O)[O-])c3o2)CCCC4N2CC(C(=O)O)C2)c1C` (some centres unmarked) [Compound 001] had a half-inhibitory concentration (IC50) of at most 10 nM.
For `Cc1c(Nc2nccc3cc(CN4CC[C@@H](O)C4)cnc23)cccc1-c1cccc(-c2cc3cc4c(c(C#N)c3o2)CCCC4N2CC(C(=O)O)C2)c1C` (some centres unmarked) [Compound 002] the value was at most 10 nM; for `COc1nc(-c2cccc(-c3cccc(-c4cc5cc6c(c(C#N)c5o4)CCC6N4CC[C@@H](C(=O)O)C4)c3C)c2C)cnc1CN1CC[C@@H](O)C1` (some centres unmarked) [Compound 003], at most 10 nM; for `Cc1c(Nc2nccc3cc(CN4CC[C@@H](O)C4)cnc23)cccc1-c1cccc(-c2nc3cc4c(c(C#N)c3o2)CCC4N2CC[C@@H](C(=O)O)C2)c1C` (some centres unmarked) [Compound 004], at most 10 nM.
The compound `N#Cc1c2c(cc3nc(-c4cccc(-c5cccc(Nc6nccc7cc(CN8CC[C@@H](O)C8)cnc67)c5Cl)c4Cl)oc13)C(N1CC[C@@H](C(=O)O)C1)CC2` (some centres unmarked) [Compound 005] registered an IC50 of at most 10 nM.
For `Cc1c(Nc2nccc3cc(CN4CC[C@@H](O)C4)cnc23)cccc1-c1cccc(-c2nc3cc4c(c(C#N)c3o2)CC[C@@H]4N2CC[C@@H](C(=O)O)C2)c1C` [Compound 006] the value was at most 10 nM; for `Cc1c(Nc2nccc3cc(CN4CC[C@@H](O)C4)cnc23)cccc1-c1cccc(-c2nc3cc4c(c(C#N)c3o2)CC[C@H]4N2CC[C@@H](C(=O)O)C2)c1C` [Compound 007], at most 10 nM.
The result for `COc1nc(-c2cccc(-c3cccc(-c4nc5cc6c(c(C#N)c5o4)CCC6N4CC[C@@H](C(=O)O)C4)c3C)c2C)ccc1CN1CC[C@@H](O)C1` (some centres unmarked) [Compound 008] reads at most 10 nM.
The compound `Cc1c(Nc2nccc3cc(CN4CC[C@@H](O)C4)cnc23)cccc1-c1cccc(-c2nc3cc4c(c(C#N)c3o2)CCC4N2CC[C@@H](C(=O)NS(=O)(=O)C3CC3)C2)c1C` (some centres unmarked) [Compound 009] came in with an IC50 of at most 10 nM.
For `Cc1c(Nc2nccc3cc(CN4CC[C@@H](O)C4)cnc23)cccc1-c1cccc(-c2nc3cc4c(c(C#N)c3o2)CCC4N2CC[C@@H](C(N)=O)C2)c1C` (some centres unmarked) [Compound 010] the value was at most 10 nM.
The result for `N#Cc1c2c(cc3nc(-c4cccc(-c5cccc(Nc6nccc7cc(CN8CC[C@@H](O)C8)cnc67)c5Cl)c4Cl)oc13)[C@@H](NCCC(=O)O)CC2` [Compound 011] reads at most 10 nM; that for `N#Cc1c2c(cc3nc(-c4cccc(-c5cccc(Nc6nccc7cc(CN8CC[C@@H](O)C8)cnc67)c5Cl)c4Cl)oc13)[C@@H](NCC(=O)O)CC2` [Compound 012], at most 10 nM; that for `CN(CC(=O)O)[C@H]1CCc2c1cc1nc(-c3cccc(-c4cccc(Nc5nccc6cc(CN7CC[C@@H](O)C7)cnc56)c4Cl)c3Cl)oc1c2C#N` [Compound 013], at most 10 nM.
The result for `Cc1c(Nc2nc(N)nc3cc(CN4CC[C@@H](O)C4)cnc23)cccc1-c1cccc(-c2nc3cc4c(c(C#N)c3o2)CC[C@H]4N2CC[C@@H](C(=O)O)C2)c1C` [Compound 015] reads at most 10 nM; that for `Cc1c(Nc2nc(C(F)F)nc3cc(CN4CC[C@@H](O)C4)cnc23)cccc1-c1cccc(-c2nc3cc4c(c(C#N)c3o2)CC[C@H]4N2CC[C@@H](C(=O)O)C2)c1C` [Compound 016], at most 10 nM; that for `Cc1c(Nc2nccc3cc(CN4CC[C@@H](O)C4)cnc23)cccc1-c1cccc(-c2cc3cc4c(c(C#N)c3o2)CCCC4N2CC[C@@H](C(=O)O)C2)c1C` (some centres unmarked) [Compound 017], at most 10 nM.
With `Cc1c(Nc2nccc3cc(CN4CC[C@@H](O)C4)cnc23)cccc1-c1cccc(-c2cc3cc4c(c(C#N)c3o2)CCC4N2CC[C@@H](C(=O)O)C2)c1C` (some centres unmarked) [Compound 018], the IC50 is at most 10 nM.
The result for `Cc1c(Nc2nccc3cc(CN4CC[C@@H](O)C4)cnc23)cccc1-c1cccc(-c2cc3cc4c(c(C#N)c3o2)CCCC4N2CC[C@@H](O)C2)c1C` (some centres unmarked) [Compound 019] reads at most 10 nM; that for `Cc1c(Nc2nccc3cc(CN4CC[C@@H](O)C4)cnc23)cccc1-c1cccc(-c2cc3cc4c(c(C#N)c3o2)CCC4N2CC[C@@H](O)C2)c1C` (some centres unmarked) [Compound 020], at most 10 nM.
For `N#Cc1c2c(cc3cc(-c4cccc(-c5cccc(Nc6nccc7cc(CN8CC[C@@H](O)C8)cnc67)c5Cl)c4Cl)oc13)C(N1CC[C@@H](C(=O)O)C1)CC2` (some centres unmarked) [Compound 021] the value was at most 10 nM; for `Cc1c(Nc2nccc3cc(CN4CC[C@@H](O)C4)cnc23)cccc1-c1cccc(-c2cc3cc4c(c(C#N)c3o2)CC[C@@H]4N)c1C` [Compound 022], at most 10 nM; for `Cc1c(Nc2nccc3cc(CN4CC[C@@H](O)C4)cnc23)cccc1-c1cccc(-c2cc3cc4c(c(C#N)c3o2)CCCC4NCCO)c1C` (some centres unmarked) [Compound 023], at most 10 nM.
For `Cc1c(Nc2nccc3cc(CN4CC[C@@H](O)C4)cnc23)cccc1-c1cccc(-c2nc3cc4c(c(C#N)c3o2)CCC4N2CC[C@@H](C(=O)O)C2)c1Cl` (some centres unmarked) [Compound 026] the value was at most 10 nM.
`Cc1c(-c2nc3cc4c(c(C#N)c3o2)CCC4N2CC[C@@H](C(=O)O)C2)cccc1-c1cccc(Nc2nccc3cc(CN4CC[C@@H](O)C4)cnc23)c1Cl` (some centres unmarked) [Compound 027]: the IC50 is at most 10 nM.
For `Cc1c(Nc2nccc3cc(CN4CC[C@@H](O)C4)cnc23)cccc1-c1cccc(-c2nc3cc4c(c(C#N)c3o2)CCC4NCCC(=O)O)c1C` (some centres unmarked) [Compound 028] the value was at most 10 nM; for `N#Cc1c2c(cc3nc(-c4cccc(-c5cccc(Nc6nccc7cc(CN8CC[C@@H](O)C8)cnc67)c5Cl)c4Cl)oc13)[C@@H](N1CC[C@@H](C(=O)O)C1)CC2` [Compound 029], at most 10 nM; for `N#Cc1c2c(cc3nc(-c4cccc(-c5cccc(Nc6nccc7cc(CN8CC[C@@H](O)C8)cnc67)c5Cl)c4Cl)oc13)[C@H](N1CC[C@@H](C(=O)O)C1)CC2` [Compound 030], at most 10 nM.
The result for `N#Cc1c2c(cc3nc(-c4cccc(-c5cccc(Nc6nccc7cc(CN8CC[C@@H](O)C8)cnc67)c5Cl)c4Cl)oc13)[C@H](NCCC(=O)O)CC2` [Compound 031] reads at most 10 nM; that for `Cc1c(Nc2nccc3cc(CN4CC[C@@H](O)C4)cnc23)cccc1-c1cccc(-c2nc3cc4c(c(C#N)c3o2)CC[C@H]4N2CC[C@@H](C(=O)NS(=O)(=O)C3CC3)C2)c1C` [Compound 032], at most 10 nM.
For `COc1nc(-c2cccc(-c3cccc(-c4nc5cc6c(c(C#N)c5o4)CC[C@H]6N4CC[C@@H](C(=O)NS(=O)(=O)C5CC5)C4)c3C)c2C)ccc1CN1CC[C@@H](O)C1` [Compound 034] the value was at most 10 nM; for `COc1nc(-c2cccc(-c3cccc(-c4nc5cc6c(c(C#N)c5o4)CC[C@H]6N4CC[C@@H](C(=O)NS(=O)(=O)C5CC5)C4)c3Cl)c2Cl)ccc1CN1CC[C@@H](O)C1` [Compound 035], at most 10 nM; for `COc1nc(-c2cccc(-c3cccc(-c4nc5cc6c(c(C#N)c5o4)CC[C@H]6N4CC[C@@H](C(=O)NS(=O)(=O)C5CC5)C4)c3C)c2C)cnc1CN1CC[C@@H](O)C1` [Compound 036], at most 10 nM.
As for `COc1nc(-c2cccc(-c3cccc(-c4nc5cc6c(c(C#N)c5o4)CC[C@H]6N4CC[C@@H](C(=O)NS(=O)(=O)C5CC5)C4)c3Cl)c2Cl)cnc1CN1CC[C@@H](O)C1` [Compound 037], the half-inhibitory concentration (IC50) is at most 10 nM.
For `COc1nc(-c2cccc(-c3cccc(-c4nc5cc6c(c(C#N)c5o4)CC[C@@H]6NCCC(=O)O)c3Cl)c2Cl)cnc1CN1CC[C@@H](O)C1` [Compound 038] the value was at most 10 nM.
The result for `COc1nc(-c2cccc(-c3cccc(-c4nc5cc6c(c(C#N)c5o4)CC[C@H]6NCCC(=O)O)c3Cl)c2Cl)cnc1CN1CC[C@@H](O)C1` [Compound 039] reads at most 10 nM.
The result for `Cc1c(Nc2nccc3cc(CN4CC[C@@H](O)C4)cnc23)cccc1-c1cccc(-c2nc3cc4c(c(C#N)c3o2)CC[C@H]4N2CC[C@@H](C(=O)O)C2)c1Cl` [Compound 040] reads at most 10 nM; that for `N#Cc1c2c(cc3nc(-c4cccc(-c5cccc(Nc6nccc7cc(CN8CC[C@@H](O)C8)cnc67)c5Cl)c4Cl)oc13)[C@@H](NCC(=O)NS(=O)(=O)C1CC1)CC2` [Compound 042], at most 10 nM.
For the compound `CCOC(=O)CN[C@H]1CCc2c1cc1nc(-c3cccc(-c4cccc(Nc5nccc6cc(CN7CC[C@@H](O)C7)cnc56)c4Cl)c3Cl)oc1c2C#N` [Compound 043], the IC50 was in the range of 10 to 100 nM.
For `Cc1c(-c2nc3cc4c(c(C#N)c3o2)CC[C@H]4N2CC[C@@H](C(=O)O)C2)cccc1-c1cccc(Nc2nc(C(F)F)nc3cc(CN4CC[C@@H](O)C4)cnc23)c1Cl` [Compound 081] the value was at most 10 nM; for `Cc1c(Nc2nc(C(F)F)nc3cc(CN4CC[C@@H](O)C4)cnc23)cccc1-c1cccc(-c2nc3cc4c(c(C#N)c3o2)CC[C@H]4N2CC[C@@H](C(=O)O)C2)c1Cl` [Compound 082], at most 10 nM; for `N#Cc1c2c(cc3nc(-c4cccc(-c5cccc(Nc6nc(C(F)F)nc7cc(CN8CC[C@@H](O)C8)cnc67)c5Cl)c4Cl)oc13)[C@H](N1CC[C@@H](C(=O)O)C1)CC2` [Compound 083], at most 10 nM.

These data come from patent publication US20220372031A1, “NOVEL TRICYCLIC AROMATIC HETEROCYCLIC COMPOUND, PREPARATION METHOD THEREFOR, PHARMACEUTICAL COMPOSITION AND APPLICATION THEREOF” (SHANGHAI LONGWOOD BIOPHARMACEUTICALS CO., LTD., priority 2019, published 2022).
